Measurements from patent publication US12336991B2, “Factor XIIA inhibitors” (UNIVERSITY OF LEEDS, priority 2018, dated 2025).

Assays:
Assay type in all cases: biochemical
[1] = target: FXa (Homo sapiens, UniProt P00742); assay: Determination of selectivity: FXa inhibition, chromogenic substrate S2765 assay; details: fold selectivity for FXIIa over FXa
In short: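 Human FXa (5 nM) preincubated with compound (top 500 μM, 5% DMSO) 10 min at 37 °C in 50 mM Tris, 137 mM NaCl pH 7.4, then S2765 ([…]) added; A405 kinetics over 3 h at 37 °C. IC50 from initial rates, converted to Ki via Cheng-Prusoff.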

[2] = target: T1, thrombin (Homo sapiens, UniProt P00734); assay: Determination of selectivity: thrombin inhibition, chromogenic substrate GPR assay; details: fold selectivity for FXIIa over thrombin
T1 construct: FXa (5 nM) and thrombin (5 nM)
In short: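 Thrombin (5 nM) preincubated with compound 10 min at 37 °C in 50 mM Tris, 137 mM NaCl, pH 7.4, 5% DMSO, then GPR substrate ([…]) added. Absorbance at 405 nm read kinetically for 3 h; IC50 from initial rates, converted to Ki via Ki=IC50/(1+[S]/Km).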

[3] = target: T2, FXIIa (Homo sapiens, UniProt P00748); assay: Determination of Factor XIIa inhibition, chromogenic substrate S-2302 assay; details: human FXIIa alpha
T2 sequence (P00748 373-615 limits assumed): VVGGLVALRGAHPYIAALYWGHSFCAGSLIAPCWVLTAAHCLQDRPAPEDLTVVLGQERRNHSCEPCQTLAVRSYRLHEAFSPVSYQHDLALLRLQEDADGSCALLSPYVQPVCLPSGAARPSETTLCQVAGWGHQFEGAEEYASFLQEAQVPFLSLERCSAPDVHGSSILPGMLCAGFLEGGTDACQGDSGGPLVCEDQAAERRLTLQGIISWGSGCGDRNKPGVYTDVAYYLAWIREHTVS
T2 sequence (P00748 20-372 partner limits assumed): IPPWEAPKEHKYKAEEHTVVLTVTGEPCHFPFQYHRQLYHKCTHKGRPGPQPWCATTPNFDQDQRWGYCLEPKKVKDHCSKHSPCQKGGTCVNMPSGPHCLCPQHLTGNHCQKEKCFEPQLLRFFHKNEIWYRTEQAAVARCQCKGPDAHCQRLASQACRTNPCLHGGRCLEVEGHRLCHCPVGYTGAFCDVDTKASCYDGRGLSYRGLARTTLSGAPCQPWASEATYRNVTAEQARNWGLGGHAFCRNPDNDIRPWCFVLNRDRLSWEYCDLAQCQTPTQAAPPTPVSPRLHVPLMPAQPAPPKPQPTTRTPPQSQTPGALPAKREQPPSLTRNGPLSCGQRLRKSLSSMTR
In short: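 FXIIa (10 nM) preincubated with compound 10 min at 37° C. in 50 mM Tris, 137 mM NaCl pH 7.4, 5% DMSO, top concentration 500 μM, then S-2302 added ([…]). Absorbance at 405 nm read kinetically for 3 h; IC50 from initial rates, converted to Ki by Cheng-Prusoff.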

FXa, sequence (P00742 235-488 limits assumed): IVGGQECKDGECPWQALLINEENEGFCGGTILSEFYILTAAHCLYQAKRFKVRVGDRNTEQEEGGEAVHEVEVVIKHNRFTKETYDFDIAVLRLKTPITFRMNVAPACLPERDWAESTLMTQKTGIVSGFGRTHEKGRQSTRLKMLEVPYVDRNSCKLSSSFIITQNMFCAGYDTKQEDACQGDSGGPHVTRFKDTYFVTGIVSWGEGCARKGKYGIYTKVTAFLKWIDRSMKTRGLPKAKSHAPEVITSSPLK
FXa, sequence (P00742 41-179 partner limits assumed): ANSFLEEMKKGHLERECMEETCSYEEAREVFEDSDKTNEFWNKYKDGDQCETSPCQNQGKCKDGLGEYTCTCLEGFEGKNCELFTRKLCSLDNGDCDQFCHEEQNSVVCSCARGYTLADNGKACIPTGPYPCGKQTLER

SMILES	FXa (human)/FXIIa alpha (human) [1]	Thrombin (human)/FXIIa alpha (human) [2]	Ki [3] [nM]
Cc1ccccc1C[C@@H]1C[C@@H](C(=O)NCc2ccc3c(c2)nnn3C)N(C(=O)[C@H]2C[C@@H](c3ccccc3)CN2)C1 [Example M05360]	∘∘	++ (fold selectivity value of 10 to 100)	200 to 2000
NCc1ncc(CNC(=O)[C@@H]2CCCN2C(=O)[C@H](N)CCc2ccccc2)s1 [Example M05099]	∘∘	+ (fold selectivity values less than 10)	> 2000
Cn1nnc2cc(CNC(=O)[C@@H]3C[C@@H](Cc4ccccc4C#N)CN3C(=O)[C@H]3C[C@@H](c4ccccc4)CN3)ccc21 [Example M05337]	∘∘	++ (fold selectivity value of 10 to 100)	> 2000
Cn1nnc2cc(CNC(=O)[C@@H]3C[C@@H](Cc4cc(F)cc(F)c4)CN3C(=O)[C@H](N)CCC(=O)N3CCCC3)ccc21 [Example M05274]	∘∘∘	+++ (fold selectivity values greater than 100)	200 to 2000
COc1ccc(C[C@@H]2C[C@@H](C(=O)NCc3ccc4c(c3)nnn4C)N(C(=O)[C@H]3CC(c4cnccn4)CN3)C2)cc1 (stereo partly drawn) [Example M05459]	∘∘∘	+++ (fold selectivity values greater than 100)	200 to 2000
COc1ccc(C[C@@H]2C[C@@H](C(=O)NCc3ccc4c(c3)nnn4C)N(C(=O)[C@H](N)CCC(=O)N3CCCC3C(F)(F)F)C2)cc1 (stereo partly drawn) [Example M05392]	∘∘∘	+++ (fold selectivity values greater than 100)	< 200
Cn1nnc2cc(CNC(=O)[C@@H]3C[C@@H](Cc4cccc(C(F)(F)F)c4)CN3C(=O)[C@H]3C[C@@H](c4ccccc4)CN3)ccc21 [Example M05356]	∘∘	++ (fold selectivity value of 10 to 100)	> 2000
Cn1nnc2cc(CNC(=O)[C@@H]3C[C@H](Cc4cccc(F)c4)CN3C(=O)[C@H](N)CCC(=O)N3CCCC3)ccc21 [Example M05232]	∘∘∘	+++ (fold selectivity values greater than 100)	200 to 2000
Cn1nnc2cc(CNC(=O)[C@@H]3C[C@@H](Cc4ccncc4)CN3C(=O)[C@@H](CCC(=O)N3CCCC3)NS(C)(=O)=O)ccc21 [Example M05268]	∘∘∘	+++ (fold selectivity values greater than 100)	> 2000
NCc1ccc(CNC(=O)[C@@H]2CCCN2C(=O)[C@H](N)CCN2CCCCC2)cc1 [Example M00801]	∘∘	++ (fold selectivity value of 10 to 100)	> 2000
Cn1nnc2cc(CNC(=O)[C@@H]3C[C@@H](Cc4cccc(Cl)c4)CN3C(=O)[C@H](N)CCC(=O)N3CCCC3)ccc21 [Example M05190]	∘∘∘	+++ (fold selectivity values greater than 100)	< 200
COc1ccc(C[C@@H]2C[C@@H](C(=O)NCc3ccc4c(c3)nnn4C)N(C(=O)C3NCCc4cc(OC)ccc43)C2)cc1 (stereo partly drawn) [Example M05441]	∘∘∘	+++ (fold selectivity values greater than 100)	< 200
CC(C)Oc1ccc(CC2C[C@@H](C(=O)NCc3ccc4c(c3)nnn4C)N(C(=O)[C@H]3C[C@@H](c4ccccc4)CN3)C2)cc1 (stereo partly drawn) [Example M05349]	∘∘	++ (fold selectivity value of 10 to 100)	200 to 2000
Cn1nnc2cc(CNC(=O)[C@@H]3CC(Cc4ccccc4C#N)CN3C(=O)[C@H](N)CCC(=O)N3CCCC3)ccc21 (stereo partly drawn) [Example M05320]	∘∘∘	+++ (fold selectivity values greater than 100)	< 200
Cc1cccc(C[C@@H]2C[C@@H](C(=O)NCc3ccc4c(c3)nnn4C)N(C(=O)[C@H]3C[C@@H](c4ccccc4)CN3)C2)c1 [Example M05359]	∘∘	++ (fold selectivity value of 10 to 100)	200 to 2000
Nc1cc(CNC(=O)[C@@H]2C[C@@](O)(c3ccc(F)c(F)c3)CN2C(=O)[C@H](N)CCc2ccccc2)ccn1 [Example M05127]	∘∘	++ (fold selectivity value of 10 to 100)	200 to 2000
CC(=O)N(Cc1cccnc1)[C@H]1C[C@@H](C(=O)NCc2ccc3c(c2)nnn3C)N(C(=O)[C@H](N)CCc2ccccc2)C1 [Example M05162]	∘∘	++ (fold selectivity value of 10 to 100)	> 2000
Nc1nccc2cc(CNC(=O)[C@@H]3C[C@@H](c4ccccc4)CN3C(=O)[C@H](N)CCC(=O)N3CCCC3)ccc12 [Example M05282]	∘	++ (fold selectivity value of 10 to 100)	200 to 2000
COc1ccc(C[C@@H]2C[C@@H](C(=O)NCc3ccc4c(c3)nnn4C)N(C(=O)[C@H]3C[C@@H](c4cccnc4)CN3)C2)cc1 [Example M05354]	∘∘∘	+++ (fold selectivity values greater than 100)	200 to 2000
NCc1ccc(CNC(=O)[C@@H]2C[C@H](O)CN2C(=O)[C@H](N)CCc2ccccc2)cc1 [Example M00626]	∘∘	++ (fold selectivity value of 10 to 100)	> 2000
Cn1ccnc1CC1C[C@@H](C(=O)NCc2ccc3c(c2)nnn3C)N(C(=O)[C@H](N)CCC(=O)N2CCCC2)C1 (stereo partly drawn) [Example M05297]	∘∘∘	+++ (fold selectivity values greater than 100)	200 to 2000
Cn1nnc2cc(CNC(=O)[C@@H]3C[C@@H](NC(=O)c4ccccc4)CN3C(=O)[C@H](N)CCc3ccccc3)ccc21 [Example M05179]	∘∘	++ (fold selectivity value of 10 to 100)	> 2000
Cn1nnc2cc(CNC(=O)[C@@H]3C[C@@H](Cc4ccc(Br)cc4)CN3C(=O)[C@H](N)CCC(=O)N3CCCC3)ccc21 [Example M05326]	∘∘∘	+++ (fold selectivity values greater than 100)	< 200
COc1ccc(C[C@@H]2C[C@@H](C(=O)NCc3ccc4c(c3)nnn4C)N(C(=O)[C@H](N)CCc3ccccn3)C2)cc1 [Example M05453]	∘∘∘	+++ (fold selectivity values greater than 100)	< 200
Cn1nccc1C[C@H]1C[C@@H](C(=O)NCc2ccc3c(c2)nnn3C)N(C(=O)[C@H](N)CCC(=O)N2CCCC2)C1 [Example M05294]	∘∘∘	++ (fold selectivity value of 10 to 100)	200 to 2000
COc1ccc(C[C@@H]2C[C@@H](C(=O)NCc3ccc4c(c3)nnn4C)N(C(=O)[C@H](N)CCC(=O)N3C(C)CCC3C)C2)cc1 (stereo partly drawn) [Example M05399]	∘∘∘	+++ (fold selectivity values greater than 100)	< 200
